Laboratory results reported in US20250311722A1, “IMPROVED BIOCIDE” (Purgos ApS, priority 2022, published 2025).
Values joined by “and” are separate entries in the source; they are usually repeats but may differ in a detail not shown here. Equal values may be shown once. Read-outs that look alike come from different tables or passages of the source.

Key:
Assay type in all cases: cell-based
[1] = system: Coniophora puteana. BAM Ebw. 15; assay: EN 113 test against wood destroying basidiomycetes; conditions: for Corrected mass loss / Mass loss: single blocks
Text: EN 113, 2020: Durability of wood and wood-based products-Test method against wood destroying basidiomycetes. Assessment of biocidal efficacy of wood preservatives.
Assessment of the results shown in table XIV.: The protection provided for the wood by the test preservative at the given concentration is deemed to be adequate if: • a) the corrected mean loss is less than 3.0% (m/m) • b) not more than one specimen has suffered a loss in mass greater than 3.0% (m/m) but less than 5.0% (m/m)
The impregnation process was carried out on 24-03-2021 with the following conditions:
Pre-vacuum at 0.1 bar for 30 minutes.
Pressure of 13 bars for 60 minutes.
Scots pine sapwood (Pinus sylvestris L.) for brown rot fungi with an average density of 589 kg/m3.
4 weeks according to EN 113 at 65% RH and 20° C. until stable mass was obtained.
Ionising radiation (2× 25 kGy).

[2] = system: Salmonella Infantis ISI 170; assay: Minimum bactericidal concentration (MBC); design: MBC data (outgrowth): unit not given here
Text: (§1) Even when no growth is detectable in the MIC tests, it is possible that the microorganisms have survived the treatment i.e., they are not killed but just prevented from growing. In order to test for survivors, MBC plates were subsequently made from the MIC plates.

[3] = system: Leuconostoc mesenteroides ISI 504; assay: Minimum bactericidal concentration (MBC); design: MBC data (outgrowth): unit not given here
Text: as §1

[4] = system: Streptococcus termophilus ISI 1563; assay: Minimum bactericidal concentration (MBC); design: MBC data (outgrowth): unit not given here
Text: as §1

[5] = system: Pseudomonas aeruginosa ISI 1462; assay: Minimum bactericidal concentration (MBC); design: MBC data (outgrowth): unit not given here
Text: as §1

[6] = system: Debaryomyces hansenii ISI 12; assay: Minimum bactericidal concentration (MBC); design: MBC data (outgrowth): unit not given here
Text: as §1

[7] = system: Listeria monocytogenes ISI 22; assay: Minimum bactericidal concentration (MBC); design: MBC data (outgrowth): unit not given here
Text: as §1

[8] = system: Candida albicans ISI 1226; assay: Minimum bactericidal concentration (MBC); design: MBC data (outgrowth): unit not given here
Text: as §1

Bacillus cereus ISI 842 = assay: Minimum bactericidal concentration (MBC); design: MBC data (outgrowth): unit not given here
Text: as §1

[9] = system: Lactobacillus brevis ISI 2269; assay: Minimum bactericidal concentration (MBC); design: MBC data (outgrowth): unit not given here
Text: as §1

Poliovirus = system: Poliovirus
Aspergillus niger ISI 3 = assay: Minimum bactericidal concentration (MBC)
Text: as §1

CCCCN(CCO)CCO [NBDA, N-butyldiethanolamine]
Toxic value, Retention of product ([1]; Scots pine sapwood): >9.86 kg/m^3
Toxic value, Solution conc. ([1]; Scots pine sapwood): >1.43 % w/w
Corrected mass loss, Mean ([1]; solution conc. 0.36% w/w): 36.6%
Mass loss, Mean ([1]; solution conc. 0.36% w/w): 36.8%
Corrected mass loss ([1]; solution conc. 0.36% w/w): 39.2% and 27.2% and 47.6% and 32.3%
Mass loss ([1]; solution conc. 0.36% w/w): 39.4% and 27.4% and 47.8% and 32.5%
Corrected mass loss, Mean ([1]; solution conc. 0.51% w/w): 38.3%
Mass loss, Mean ([1]; solution conc. 0.51% w/w): 38.5%
Corrected mass loss ([1]; solution conc. 0.51% w/w): 42.4% and 39.5% and 34.0% and 37.2%
Mass loss ([1]; solution conc. 0.51% w/w): 42.6% and 39.7% and 34.2% and 37.4%
Corrected mass loss, Mean ([1]; solution conc. 0.72% w/w): 37.4%
Mass loss, Mean ([1]; solution conc. 0.72% w/w): 37.1%
Corrected mass loss ([1]; solution conc. 0.72% w/w): 29.8% and 43.3% and 36.9% and 39.7%
Mass loss ([1]; solution conc. 0.72% w/w): 29.5% and 43.0% and 36.6% and 39.3%
Corrected mass loss, Mean ([1]; solution conc. 1.01% w/w): 40.4%
Mass loss, Mean ([1]; solution conc. 1.01% w/w): 39.9%
Corrected mass loss ([1]; solution conc. 1.01% w/w): 37.2% and 41.8% and 45.1% and 37.3%
Mass loss ([1]; solution conc. 1.01% w/w): 36.7% and 41.4% and 44.6% and 36.8%
Corrected mass loss, Mean ([1]; solution conc. 1.43% w/w): 36.1%
Mass loss, Mean ([1]; solution conc. 1.43% w/w): 35.0%
Corrected mass loss ([1]; solution conc. 1.43% w/w): 31.1% and 37.2% and 38.4% and 37.8%
Mass loss ([1]; solution conc. 1.43% w/w): 30.0% and 36.2% and 37.3% and 36.7%
MBC (%) [2]: 1.25%
MBC data (outgrowth) ([2]; 0.02% NBDA): 1.732 and 1.806
MBC data (outgrowth) ([2]; 0.04% NBDA): 1.858 and 1.853
MBC data (outgrowth) ([2]; 0.08% NBDA): 1.841 and 1.791
MBC data (outgrowth) ([2]; 0.16% NBDA): 1.826 and 1.827
MBC data (outgrowth) ([2]; 0.31% NBDA): 1.786 and 1.488
MBC data (outgrowth) ([2]; 0.63% NBDA): 1.806 and 1.787
MBC data (outgrowth) ([2]; 1.25% NBDA): 0.074 and 0.071
MBC data (outgrowth) ([2]; 2.50% NBDA): 0.068 and 0.070
MBC data (outgrowth) ([2]; 5.00% NBDA): 0.066 and 0.060
MBC (%) [3]: 0.63%
MBC data (outgrowth) ([3]; 0.02% NBDA): 1.449 and 1.467
MBC data (outgrowth) ([3]; 0.04% NBDA): 1.449 and 1.468
MBC data (outgrowth) ([3]; 0.08% NBDA): 1.413 and 1.467
MBC data (outgrowth) ([3]; 0.16% NBDA): 1.337 and 1.425
MBC data (outgrowth) ([3]; 0.31% NBDA): 1.452 and 1.448
MBC data (outgrowth) ([3]; 1.25% NBDA): 0.075
MBC data (outgrowth) ([3]; 2.50% NBDA): 0.076 and 0.077
MBC data (outgrowth) ([3]; 5.00% NBDA): 0.066 and 0.067
MBC (%) [4]: 1.25%
MBC data (outgrowth) ([4]; 0.02% NBDA): 0.346 and 0.323
MBC data (outgrowth) ([4]; 0.04% NBDA): 0.307 and 0.283
MBC data (outgrowth) ([4]; 0.08% NBDA): 0.311 and 0.304
MBC data (outgrowth) ([4]; 0.16% NBDA): 0.251 and 0.232
MBC data (outgrowth) ([4]; 0.31% NBDA): 0.802 and 0.522
MBC data (outgrowth) ([4]; 0.63% NBDA): 0.277 and 0.427
MBC data (outgrowth) ([4]; 1.25% NBDA): 0.072
MBC data (outgrowth) ([4]; 2.50% NBDA): 0.070 and 0.068
MBC data (outgrowth) ([4]; 5.00% NBDA): 0.062 and 0.058
MBC (%) [5]: 1.25%
MBC data (outgrowth) ([5]; 0.02% NBDA): 1.360 and 2.248
MBC data (outgrowth) ([5]; 0.04% NBDA): 2.186 and 1.311
MBC data (outgrowth) ([5]; 0.08% NBDA): 1.779 and 2.051
MBC data (outgrowth) ([5]; 0.16% NBDA): 1.680 and 2.303
MBC data (outgrowth) ([5]; 0.31% NBDA): 1.477 and 1.570
MBC data (outgrowth) ([5]; 0.63% NBDA): 1.909 and 1.789
MBC data (outgrowth) ([5]; 1.25% NBDA): 0.071 and 0.070
MBC data (outgrowth) ([5]; 2.50% NBDA): 0.071 and 0.069
MBC data (outgrowth) ([5]; 5.00% NBDA): 0.066 and 0.061
MBC (%) [6]: 2.5%
MBC data (outgrowth) ([6]; 0.02% NBDA): 1.491 and 1.495
MBC data (outgrowth) ([6]; 0.04% NBDA): 1.493 and 1.461
MBC data (outgrowth) ([6]; 0.08% NBDA): 1.472
MBC data (outgrowth) ([6]; 0.16% NBDA): 1.473 and 1.469
MBC data (outgrowth) ([6]; 0.31% NBDA): 1.432 and 1.393
MBC data (outgrowth) ([6]; 0.63% NBDA): 1.387 and 1.458
MBC data (outgrowth) ([6]; 1.25% NBDA): 1.333 and 1.309
MBC data (outgrowth) ([6]; 2.50% NBDA): 0.074
MBC data (outgrowth) ([6]; 5.00% NBDA): 0.068 and 0.069
MBC (%) [7]: 2.5%
MBC data (outgrowth) ([7]; 0.02% NBDA): 1.197 and 1.009
MBC data (outgrowth) ([7]; 0.04% NBDA): 1.195 and 1.097
MBC data (outgrowth) ([7]; 0.08% NBDA): 1.201 and 1.059
MBC data (outgrowth) ([7]; 0.16% NBDA): 1.216 and 1.141
MBC data (outgrowth) ([7]; 0.31% NBDA): 1.320 and 1.310
MBC data (outgrowth) ([7]; 0.63% NBDA): 1.496 and 1.507
MBC data (outgrowth) ([7]; 1.25% NBDA): 1.517 and 1.533
MBC data (outgrowth) ([7]; 2.50% NBDA): 0.065 and 0.070
MBC data (outgrowth) ([7]; 5.00% NBDA): 0.060 and 0.062
MBC (%) [8]: 1.25%
MBC data (outgrowth) ([8]; 0.02% NBDA): 1.332 and 1.357
MBC data (outgrowth) ([8]; 0.04% NBDA): 1.291 and 1.314
MBC data (outgrowth) ([8]; 0.08% NBDA): 1.278 and 1.314
MBC data (outgrowth) ([8]; 0.16% NBDA): 1.171 and 1.485
MBC data (outgrowth) ([8]; 0.31% NBDA): 1.168 and 1.175
MBC data (outgrowth) ([8]; 1.25% NBDA): 0.079 and 0.080
MBC data (outgrowth) ([8]; 2.50% NBDA): 0.074 and 0.075
MBC data (outgrowth) ([8]; 5.00% NBDA): 0.068
MBC (%) (Bacillus cereus ISI 842): 1.25%
MBC data (outgrowth) (Bacillus cereus ISI 842; 0.02% NBDA): 1.261 and 1.253
MBC data (outgrowth) (Bacillus cereus ISI 842; 0.04% NBDA): 1.106 and 1.352
MBC data (outgrowth) (Bacillus cereus ISI 842; 0.08% NBDA): 1.098 and 1.118
MBC data (outgrowth) (Bacillus cereus ISI 842; 0.16% NBDA): 1.286 and 1.086
MBC data (outgrowth) (Bacillus cereus ISI 842; 0.31% NBDA): 1.277 and 1.161
MBC data (outgrowth) (Bacillus cereus ISI 842; 0.63% NBDA): 1.117 and 1.001
MBC data (outgrowth) (Bacillus cereus ISI 842; 1.25% NBDA): 0.075 and 0.076
MBC data (outgrowth) (Bacillus cereus ISI 842; 2.50% NBDA): 0.072 and 0.078
MBC data (outgrowth) (Bacillus cereus ISI 842; 5.00% NBDA): 0.066
MBC (%) [9]: 0.31%
MBC data (outgrowth) ([9]; 0.02% NBDA): 0.446 and 0.463
MBC data (outgrowth) ([9]; 0.04% NBDA): 0.439 and 0.455
MBC data (outgrowth) ([9]; 0.08% NBDA): 0.447 and 0.470
MBC data (outgrowth) ([9]; 0.16% NBDA): 0.755 and 1.060
MBC data (outgrowth) ([9]; 0.31% NBDA): 0.078 and 0.077
MBC data (outgrowth) ([9]; 0.63% NBDA): 0.208 and 0.248
MBC data (outgrowth) ([9]; 1.25% NBDA): 0.077
MBC data (outgrowth) ([9]; 2.50% NBDA): 0.075 and 0.077
MBC data (outgrowth) ([9]; 5.00% NBDA): 0.067 and 0.068
Mean log reduction after 60 seconds (Poliovirus; 1.0% NBDA): 0.26
Mean log reduction after 60 seconds (Poliovirus; 5.0% NBDA): 0.17
MBC (%) (Aspergillus niger ISI 3): 0.63%
